Results published in ChEMBL document CHEMBL5665443, “Enzyme Inhibitor Single Concentration assay results for EUbOPEN Chemogenomics Library” (2024).
Where “and” joins values, the source holds several entries; their conditions need not be identical. Equal values may be shown once.

Legend:
Conditions in all cases: Compound Concentration 10.0 uM, Hit No
[1] = target: DNA-3-methyladenine glycosylase (Homo sapiens) (UniProt P29372);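 further: enzyme assay where MPG cuts a quenched duplex DNA oligonucleotide probe, paired with APE1 for strand incision and turnover, read as fluorescence at 594 nm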
Chain of DNA-3-methyladenine glycosylase (Homo sapiens) (P29372 whole entry): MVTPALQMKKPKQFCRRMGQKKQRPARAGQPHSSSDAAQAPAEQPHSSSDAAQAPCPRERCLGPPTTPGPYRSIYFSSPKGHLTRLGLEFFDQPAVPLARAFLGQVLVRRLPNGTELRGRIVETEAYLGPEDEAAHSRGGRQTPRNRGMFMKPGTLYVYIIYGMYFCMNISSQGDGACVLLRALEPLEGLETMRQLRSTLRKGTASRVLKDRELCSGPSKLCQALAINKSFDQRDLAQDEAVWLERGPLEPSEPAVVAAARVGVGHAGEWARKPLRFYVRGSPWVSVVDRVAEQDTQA
Description: Inhibition of MPG by quantifying inhibition of MPG-mediated cleavage and dissociation of quenched duplex DNA oligonucleotides, measured as fluorescence at 594 nm. To generate a functional strand incision and increase turn-over this assay is coupled to APE1.

[2] = target: T1, Adenine DNA glycosylase (Homo sapiens) (UniProt Q9UIF7);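 further: human MUTYH activity read as 594 nm fluorescence from cleavage and release of a quenched DNA duplex, coupled with APE1 for strand incision, lower signal meaning inhibition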
T1 sequence (whole entry): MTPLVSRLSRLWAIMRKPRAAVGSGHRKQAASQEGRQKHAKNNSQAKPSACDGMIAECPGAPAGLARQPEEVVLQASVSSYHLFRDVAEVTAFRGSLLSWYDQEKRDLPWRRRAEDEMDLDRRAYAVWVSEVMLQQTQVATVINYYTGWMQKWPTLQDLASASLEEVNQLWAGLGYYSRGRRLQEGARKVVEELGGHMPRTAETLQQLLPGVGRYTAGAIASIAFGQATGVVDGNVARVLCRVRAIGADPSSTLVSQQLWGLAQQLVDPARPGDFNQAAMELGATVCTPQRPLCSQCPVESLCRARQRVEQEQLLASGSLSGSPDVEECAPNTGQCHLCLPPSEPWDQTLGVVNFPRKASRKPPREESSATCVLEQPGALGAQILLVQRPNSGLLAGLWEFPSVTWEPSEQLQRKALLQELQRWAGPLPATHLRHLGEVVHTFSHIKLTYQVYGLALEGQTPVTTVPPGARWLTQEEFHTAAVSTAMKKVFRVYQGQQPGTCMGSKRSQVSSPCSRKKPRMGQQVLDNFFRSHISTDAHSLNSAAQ
Description: Inhibition of MUTYH by quantifying inhibition of MUTYH-mediated cleavage and dissociation of quenched duplex DNA oligonucleotides, measured as fluorescence at 594 nm. To generate a functional strand incision and increase turn-over this assay is coupled to APE1.

[3] = target: Endonuclease 8-like 1 (Homo sapiens) (UniProt Q96FI4);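 further: fluorescence at 594 nm from quenched duplex DNA oligonucleotides released by NEIL1 cleavage and strand separation, reported as reduction of this enzyme activity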
Chain of Endonuclease 8-like 1 (Homo sapiens) (Q96FI4 whole entry): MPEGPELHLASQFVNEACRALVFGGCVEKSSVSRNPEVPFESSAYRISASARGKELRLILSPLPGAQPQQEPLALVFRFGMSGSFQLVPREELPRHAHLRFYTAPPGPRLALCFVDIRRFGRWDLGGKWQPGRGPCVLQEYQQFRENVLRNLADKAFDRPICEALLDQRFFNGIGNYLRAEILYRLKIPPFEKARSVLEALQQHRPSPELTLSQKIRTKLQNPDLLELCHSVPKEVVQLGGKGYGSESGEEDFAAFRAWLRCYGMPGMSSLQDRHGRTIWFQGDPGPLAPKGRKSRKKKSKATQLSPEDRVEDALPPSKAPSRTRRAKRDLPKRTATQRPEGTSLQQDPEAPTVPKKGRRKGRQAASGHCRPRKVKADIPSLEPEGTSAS
Description: Inhibition of NEIL1 by quantifying inhibition of NEIL1-mediated cleavage and dissociation of quenched duplex DNA oligonucleotides, measured as fluorescence at 594 nm.

[4] = target: T2, Endonuclease 8-like 2 (Homo sapiens) (UniProt Q969S2);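 further: fluorescence at 594 nm reports NEIL2 cutting and release of a quenched double-stranded DNA oligo substrate, reduced signal read as inhibition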
T2 sequence (whole entry): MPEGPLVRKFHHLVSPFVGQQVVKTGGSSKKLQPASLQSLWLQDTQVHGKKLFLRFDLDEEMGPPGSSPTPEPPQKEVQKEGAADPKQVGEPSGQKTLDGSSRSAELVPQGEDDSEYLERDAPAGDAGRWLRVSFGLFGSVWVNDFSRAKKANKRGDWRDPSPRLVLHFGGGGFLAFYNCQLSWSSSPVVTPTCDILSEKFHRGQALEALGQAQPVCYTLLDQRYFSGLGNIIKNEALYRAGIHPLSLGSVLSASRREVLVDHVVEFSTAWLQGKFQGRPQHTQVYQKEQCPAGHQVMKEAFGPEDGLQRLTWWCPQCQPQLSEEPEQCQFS
Description: Inhibition of NEIL2 by quantifying inhibition of NEIL2-mediated cleavage and dissociation of quenched duplex DNA oligonucleotides, measured as fluorescence at 594 nm.

[5] = target: N-glycosylase/DNA lyase (Homo sapiens) (UniProt O15527);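 further: OGG1 cleavage of a quenched duplex DNA oligonucleotide, coupled to APE1 for strand incision, read as fluorescence at 594 nm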
Chain of N-glycosylase/DNA lyase (Homo sapiens) (O15527 whole entry): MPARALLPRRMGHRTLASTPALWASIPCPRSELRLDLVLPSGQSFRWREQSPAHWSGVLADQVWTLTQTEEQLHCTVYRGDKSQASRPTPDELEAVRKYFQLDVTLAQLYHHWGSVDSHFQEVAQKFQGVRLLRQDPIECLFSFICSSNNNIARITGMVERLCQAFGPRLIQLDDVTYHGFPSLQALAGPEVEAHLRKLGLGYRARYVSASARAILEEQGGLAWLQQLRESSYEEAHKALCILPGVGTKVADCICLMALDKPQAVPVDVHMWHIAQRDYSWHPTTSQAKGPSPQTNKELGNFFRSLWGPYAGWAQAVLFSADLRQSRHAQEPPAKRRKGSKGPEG
Description: Inhibition of OGG1 by quantifying inhibition of OGG1-mediated cleavage and dissociation of quenched duplex DNA oligonucleotides, measured as fluorescence at 594 nm. To generate a functional strand incision and increase turn-over this assay is coupled to APE1.

[6] = target: G/T mismatch-specific thymine DNA glycosylase (Homo sapiens) (UniProt Q13569);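 further: human TDG cleavage of quenched duplex DNA oligonucleotides coupled to APE1, strand release read as fluorescence at 594 nm, inhibition of TDG activity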
Chain of G/T mismatch-specific thymine DNA glycosylase (Homo sapiens) (Q13569 whole entry): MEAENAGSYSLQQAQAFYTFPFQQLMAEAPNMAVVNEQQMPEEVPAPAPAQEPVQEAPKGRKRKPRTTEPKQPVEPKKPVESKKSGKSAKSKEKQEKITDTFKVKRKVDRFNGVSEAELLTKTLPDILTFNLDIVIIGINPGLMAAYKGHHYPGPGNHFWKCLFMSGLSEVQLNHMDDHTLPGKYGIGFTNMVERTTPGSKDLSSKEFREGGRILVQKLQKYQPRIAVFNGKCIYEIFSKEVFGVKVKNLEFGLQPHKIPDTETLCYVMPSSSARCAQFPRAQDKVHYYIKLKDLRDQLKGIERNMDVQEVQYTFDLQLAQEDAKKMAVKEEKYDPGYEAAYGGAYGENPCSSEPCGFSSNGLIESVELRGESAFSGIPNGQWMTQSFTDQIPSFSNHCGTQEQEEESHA
Description: Inhibition of TDG by quantifying inhibition of TDG-mediated cleavage and dissociation of quenched duplex DNA oligonucleotides, measured as fluorescence at 594 nm. To generate a functional strand incision and increase turn-over this assay is coupled to APE1.

[7] = target: Uracil-DNA glycosylase (Homo sapiens) (UniProt P13051);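 further: UNG excision on a quenched double-stranded DNA oligo probe, with APE1 added for strand incision and turnover, read as fluorescence at 594 nm as strands separate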
Chain of Uracil-DNA glycosylase (Homo sapiens) (P13051 whole entry, the tested form may be a part): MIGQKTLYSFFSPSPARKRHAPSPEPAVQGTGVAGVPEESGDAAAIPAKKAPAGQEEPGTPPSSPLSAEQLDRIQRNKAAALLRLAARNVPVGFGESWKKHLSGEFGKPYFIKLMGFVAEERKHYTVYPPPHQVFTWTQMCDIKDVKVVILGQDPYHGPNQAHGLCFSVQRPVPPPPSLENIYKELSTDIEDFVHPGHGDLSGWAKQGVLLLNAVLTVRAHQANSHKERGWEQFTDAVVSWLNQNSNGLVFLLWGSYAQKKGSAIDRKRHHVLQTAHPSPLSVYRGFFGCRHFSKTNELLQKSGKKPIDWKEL
Description: Inhibition of UNG by quantifying inhibition of UNG-mediated cleavage and dissociation of quenched duplex DNA oligonucleotides, measured as fluorescence at 594 nm. To generate a functional strand incision and increase turn-over this assay is coupled to APE1.

[8] = target: Methyl-CpG-binding domain protein 4 (Homo sapiens) (UniProt O95243);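 further: MBD4 activity read as fluorescence at 594 nm from cleavage and release of a quenched duplex DNA oligonucleotide, with APE1 coupled to incise the strand and raise turnover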
Chain of Methyl-CpG-binding domain protein 4 (Homo sapiens) (O95243 whole entry, the tested form may be a part): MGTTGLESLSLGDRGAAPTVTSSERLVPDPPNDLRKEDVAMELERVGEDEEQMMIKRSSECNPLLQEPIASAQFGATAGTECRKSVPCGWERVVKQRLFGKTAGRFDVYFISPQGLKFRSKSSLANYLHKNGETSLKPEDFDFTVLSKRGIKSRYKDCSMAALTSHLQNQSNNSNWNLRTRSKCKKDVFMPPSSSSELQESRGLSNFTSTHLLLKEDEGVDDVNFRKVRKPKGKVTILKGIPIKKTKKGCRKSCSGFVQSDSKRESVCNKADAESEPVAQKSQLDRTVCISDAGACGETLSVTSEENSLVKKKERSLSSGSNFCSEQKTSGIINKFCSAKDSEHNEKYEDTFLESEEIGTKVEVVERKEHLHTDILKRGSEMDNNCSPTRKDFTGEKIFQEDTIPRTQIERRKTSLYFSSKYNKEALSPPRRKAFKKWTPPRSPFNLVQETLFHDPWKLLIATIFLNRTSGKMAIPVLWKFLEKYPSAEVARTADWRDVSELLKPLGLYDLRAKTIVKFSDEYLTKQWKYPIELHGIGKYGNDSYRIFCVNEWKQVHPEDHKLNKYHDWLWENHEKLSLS
Description: Inhibition of MBD4 by quantifying inhibition of MBD4-mediated cleavage and dissociation of quenched duplex DNA oligonucleotides, measured as fluorescence at 594 nm. To generate a functional strand incision and increase turn-over this assay is coupled to APE1.

[9] = target: T3, Single-strand selective monofunctional uracil DNA glycosylase (Homo sapiens) (UniProt Q53HV7);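 further: enzymatic SMUG1 assay coupled with APE1, reading fluorescence at 594 nm released when a quenched double-stranded DNA oligonucleotide substrate is cleaved and separated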
T3 sequence (whole entry): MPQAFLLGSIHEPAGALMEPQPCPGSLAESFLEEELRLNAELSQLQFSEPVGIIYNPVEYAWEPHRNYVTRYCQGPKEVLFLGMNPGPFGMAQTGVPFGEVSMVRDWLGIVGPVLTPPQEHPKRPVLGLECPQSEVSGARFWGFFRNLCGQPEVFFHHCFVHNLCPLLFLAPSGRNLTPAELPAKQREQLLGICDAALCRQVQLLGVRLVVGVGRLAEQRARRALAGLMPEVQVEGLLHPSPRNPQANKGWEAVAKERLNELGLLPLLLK
Description: Inhibition of SMUG1 by quantifying inhibition of SMUG1-mediated cleavage and dissociation of quenched duplex DNA oligonucleotides, measured as fluorescence at 594 nm. To generate a functional strand incision and increase turn-over this assay is coupled to APE1.

[10] = target: T4, Endonuclease III-like protein 1 (Homo sapiens) (UniProt P78549);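 further: enzyme assay tracking NTHL1 cutting and release of a quenched double-stranded DNA oligo substrate, read as fluorescence at 594 nm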
T4 sequence (whole entry): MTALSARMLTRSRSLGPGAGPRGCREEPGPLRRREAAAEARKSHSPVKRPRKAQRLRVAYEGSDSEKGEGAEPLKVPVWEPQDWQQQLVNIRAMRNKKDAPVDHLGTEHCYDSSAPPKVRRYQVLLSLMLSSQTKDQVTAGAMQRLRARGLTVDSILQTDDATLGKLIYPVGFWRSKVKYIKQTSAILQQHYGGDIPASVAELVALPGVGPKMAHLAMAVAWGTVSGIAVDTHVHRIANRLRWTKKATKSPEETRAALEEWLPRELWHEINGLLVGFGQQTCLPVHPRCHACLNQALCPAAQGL
Description: Inhibition of NTHL1 by quantifying inhibition of NTHL1-mediated cleavage and dissociation of quenched duplex DNA oligonucleotides, measured as fluorescence at 594 nm.

| Structure (SMILES) | inhibition [1] | inhibition [2] | inhibition [3] | inhibition [4] | inhibition [5] | inhibition [6] | inhibition [7] | inhibition [8] | inhibition [9] | inhibition [10] |
| --- | --- | --- | --- | --- | --- | --- | --- | --- | --- | --- |
| Clc1cccc(Cl)c1NC1=NCCN1 | -5.72% | 14.7% | -1.69% | 1.76% | -5.49% | 0.825% |  |  |  |  |
| c1ccc(NCc2ccc(CNc3ccccn3)cc2)nc1 | -3.14% | -5.87% | 3.5% | -4.48% | -3.65% | 13.4% |  |  |  |  |
| CN1CCN2c3ncccc3Cc3ccccc3C2C1 (stereo unspecified) | -7.53% | -2.92% | 3.95% | 10% | -6.38% | -8.16% |  |  |  |  |
| CC(C)NCC(O)COc1cccc2[nH]ccc12 (stereo unspecified) | 6.08% | -5.48% | 2.76% | 4.01% | -5.87% | 3.97% | -6.49% |  |  |  |
| CC(C)C[C@H](NC(=O)N1CCCCCC1)C(=O)N[C@H](Cc1cn(C)c2ccccc12)C(=O)N[C@H](Cc1ccccn1)C(=O)O | -0.244% | 9.62% | -0.0556% | 6% | -9.37% | 3.66% | -6.34% | -1.3% |  |  |
| Cc1ccc(-c2ccc(F)cc2COc2ccc(CCC(=O)O)cc2)cc1 | 13.7% | 37.1% | 4.39% | 4.26% | 31.9% | 27.6% |  | 34.9% |  |  |
| CCCn1c(=O)c2[nH]c(-c3ccc(OCC(=O)Nc4ccc(C#N)cc4)cc3)nc2n(CCC)c1=O | -6.3% | -3.95% |  |  | -7.63% | 1.64% | -6.42% |  |  |  |
| Clc1ccc2nsnc2c1NC1=NCCN1 | 6.04% | -8.81% | -3.76% | 0.515% | -1.01% | 12% | -7.76% |  | 2.87% |  |
| COc1cccc(-c2c(C)n(Cc3c(F)cccc3C(F)(F)F)c(=O)n(C[C@H](NCCCC(=O)O)c3ccccc3)c2=O)c1F | 1.07% | 1.3% | -2.87% | -9.22% | -3.13% | 27.2% |  | -5.02% |  |  |
| Cc1onc(-c2ccccc2Cl)c1C(=O)N(C)c1ccc(Cl)cc1 | -3.37% | 15.8% | -2.13% | 7% | -3.42% | 12.4% | -8.91% |  | 3.65% |  |
| CCC(=N\O)/C(C)=C/c1ccc(F)cc1 | 12.6% | -8.19% and -8.38% | 0.164% and -0.139% | -6.1% and 1.43% | 8.29% and 3.66% |  | -0.0369% and -2.61% |  | 15.6% and 4.45% |  |
| Cc1ccc(/C(=C\CN2CCCC2)c2ccccn2)cc1 | -1.09% | 2.96% | 5.28% | -2.48% | -5.51% | 1.66% |  | -4.67% |  |  |
| O=c1ccn([C@@H]2O[C@H](COP(=O)(O)OP(=O)(O)O)[C@@H](O)[C@H]2O)c(=O)[nH]1 | -2.06% | 23.4% | -1.39% | 2.51% | -4.12% | 19.1% | -4.06% |  |  |  |
| CC(C)Cc1ccc([C@@H](C)C(=O)NS(C)(=O)=O)cc1 | -0.553% | 19% | 1.28% | -1.98% | -2.17% | 3.68% | -7.7% |  | 0.354% |  |
| CCN(Cc1ccncc1)C(=O)C(CO)c1ccccc1 (stereo unspecified) | 3.77% | 14% | -2.58% | 9.75% | -6.9% | 7.61% |  | 1.02% |  |  |
| Nc1nc(NCCc2ccc(O)cc2)nc2nc(-c3ccco3)nn12 | -1.9% | 18.6% | -1.69% | 6% | -7.81% | -0.119% |  |  | -6.72% |  |
| CCC[C@H](Oc1cc(C)c(-n2cc(C(F)(F)F)cn2)c(C)c1)c1ccc(C(=O)NCCC(=O)O)cc1 | -2.83% | 39.2% | 4.69% | 6.5% | 8.48% | 24.9% |  | 19.8% |  |  |
| COCCCN1CCC(NC(=O)c2cc(Cl)c(N)c3c2OCC3)CC1 | 8.09% | 17.3% | -6.73% | -0.983% | -3.13% | 2.17% |  |  |  |  |
| CNC[C@H](O)c1ccc(O)c(O)c1 | 10.2% | 28.8% | 9.88% |  | 30.3% | 37.5% |  | 46.8% |  |  |
| O=C(Cc1ccccc1)Nc1nc2ccc(Cl)cc2c2nc(-c3ccco3)nn12 | 6.12% | 13.8% | -6.88% | -4.48% | -2.3% | 4.82% |  | -7.05% |  |  |
| CCc1nc2c(C)cc(C)nc2[nH]1 | 5.35% | -7.66% | 2.46% | 6.75% |  | -2.03% |  |  |  |  |
| Cc1cnc(CNCC2(F)CCN(C(=O)c3ccc(F)c(Cl)c3)CC2)nc1 | 6.04% | -3.43% | 2.32% | 7.5% | -1.55% | 6.93% | -8.07% |  | -8.17% |  |
| CC(C)(C)c1ccc(S(=O)(=O)Nc2ccc(Cl)cc2C(=O)c2cc[n+]([O-])cc2)cc1 | 1.3% | -4.97% | 3.35% | -0.483% | 1.79% | -0.448% |  |  |  |  |
| CN1C[C@@H](NS(=O)(=O)N(C)C)C[C@@H]2c3cccc4c3c(cn4C)C[C@H]21 | 11.2% |  | 13.1% | -0.605% | -5.21% | 7.57% | -6.05% | 12.1% | 2.87% | -8.51% |
| CN(C)C(=O)N[C@H]1CC[C@H](CCN2CCN(c3cccc(Cl)c3Cl)CC2)CC1 | -7.07% |  | -4.8% | 10.2% | 1.62% | 14.4% | -3.02% | -1.19% | 1.03% | 2.66% |
| N[C@H](C(=O)O)c1ccc(C(=O)O)c(C(=O)O)c1 | -6.3% | 10.4% | -4.06% | 5.76% | -7.96% | 4.6% |  |  | -4.49% |  |
| Cc1cccc(NC(=O)N[C@@H]2N=C(c3ccccc3)c3ccccc3N(C)C2=O)c1 | 17% | 10.5% |  | -1.73% | -6.8% | 12.3% |  |  | -5.61% |  |
| CCN(CC)S(=O)(=O)Nc1cccc(-c2ccc3c(NC(=O)C4CC4)n[nH]c3c2)c1 | 3.86% |  | 9.38% | 5.35% | -4.92% | 45.5% | 2.23% | -2.59% | 11.9% | 9.15% |
